Earlier results, collected in patent US6583123B2, “Aminosugar, glycosaminoglycan, and S-adenosylmethionine composition for the treatment and repair of connective tissue” (Nutramax Laboratories, Inc., priority 1996, dated 2003).

Experiments:
fibroblasts = details: in vitro
osteoarthritis = details: humans with osteoarthritis
wound healing = details: topical application, in vivo
[1] = some forms of exogenous SAM, given orally
[2] = oral, humans, versus placebo
[3] = SAM per se (not stable salts)
[4] = not given; remark: listed apart in the source

For `N[C@H]1C(O)O[C@H](CO)[C@@H](O)[C@@H]1O` (stereo partly shown) [Glucosamine], the “synthesis of collagen and glycosaminoglycans” value (fibroblasts) is listed as “increase the synthesis of collagen and glycosaminoglycans”, the “symptoms and cartilage integrity” value (osteoarthritis) is listed as “reproducible improvement in symptoms and cartilage integrity” and the “absorption after oral administration” value (humans and animals) is listed as “rapidly absorbed”. For the same compound, the “tissue localization of ingested glucosamine” value (oral) was “localizes to cartilage and joint tissues” and the wound healing (wound healing) was “enhanced wound healing”.
In the case of `Nc1ncnc2c1ncn2[C@@H]1O[C@H](CO)[C@@H](O)[C@H]1O` [adenosine], the anti-inflammatory effect (inflammation) is listed as “more modest anti-inflammatory effect”.
In the case of `C[S+](CC[C@H](N)C(=O)[O-])C[C@H]1O[C@@H](n2cnc3c(N)ncnc32)[C@H](O)[C@@H]1O` (stereo partly shown) [SAM, S-Adenosylmethionine], the “stability in digestive juices” value [1] is given as “stable in digestive juices”, the tolerability [2] is given as “tolerated to the same extent as placebo” and the stability [3] is given as “unstable”.
In the case of `[Mn+2]` [manganese], the “dietary manganese absorbed by the body tissue” value [4] is listed as “Approximately 40%”.
